For data set [1], the system named is Plasmodium falciparum. In words: Antiplasmodial activity against Plasmodium falciparum 3D7 trophozoites assessed as parasite growth inhibition. The format is functional, organism-based.
The nature of data set [2]: Cytotoxicity against human MRC5 cells assessed as cell growth inhibition measured after 24 hrs by MTT assay. The format is toxicity, cell-based. On the technique in general: Formazan colour is commonly taken as a measure of viable cells.
Data set [3] is described as follows: Cytotoxicity against human MRC5 cells assessed as cell viability at 3.125 to 100 uM measured after 24 hrs by MTT assay relative to control. Particulars: dose 3.125-100 µM, read-out: Activity. The format is toxicity, cell-based.

The IC50 is the concentration that inhibits the measured activity by half. For `CC(=O)N1C(=O)CNC1=O`, in data set [1], the IC50 turned out to be 147 µM. Further, the IC50 at 24 h in data set [2] was more than 100 µM. Besides, the viability at 24 h, up to 100 µM in data set [3] is more than 80%.
Turning to `Cc1ccc(S(=O)(=O)N2C(=O)CNC2=O)cc1`, in data set [1], the IC50 came out at 0.00397 µM. Moreover, in data set [2], the IC50 at 24 h is more than 100 µM. The viability at 24 h, up to 100 µM in data set [3] was more than 80%.
Take `C[C@H]1NC(=O)NC1=O`: in data set [1], the IC50 was 916 µM. Besides, the IC50 at 24 h in data set [2] is more than 100 µM. Further, in data set [3], the viability at 24 h, up to 100 µM was more than 80%.
Take `CSCC[C@H]1NC(=O)NC1=O`: the IC50 in data set [1] is more than 1000 µM. Also, the IC50 at 24 h in data set [2] is more than 100 µM. The viability at 24 h, up to 100 µM in data set [3] was more than 80%.
With `CC(C)C(=O)N1C(=O)CNC1=O`, the IC50 in data set [1] was more than 1000 µM. Besides, the IC50 at 24 h in data set [2] was more than 100 µM. Besides, the viability at 24 h, up to 100 µM in data set [3] was more than 80%.
For `O=C1CNC(=O)N1C(=O)Cc1ccccc1`, the IC50 in data set [1] was 748 µM. Moreover, in data set [2], the IC50 at 24 h was more than 100 µM. Besides, the viability at 24 h, up to 100 µM in data set [3] is more than 80%.
On to `O=C1CNC(=O)N1` [HYDANTOIN], for which the IC50 in data set [1] came out at 623 µM. Also, the IC50 at 24 h in data set [2] was more than 100 µM. Moreover, in data set [3], the viability at 24 h, up to 100 µM was more than 80%.
In the case of `CC(C)C(=O)N1C(=O)N[C@H](c2ccccc2)C1=O`, in data set [1], the IC50 worked out at 27.5 µM. Moreover, the IC50 at 24 h in data set [2] was more than 100 µM. In addition, in data set [3], the viability at 24 h, up to 100 µM is more than 80%.
For `O=C1NC(=O)[C@@H](c2ccccc2)N1` the same measures were more than 1000 µM, more than 100 µM and more than 80%.
As to `O=C1CNC(=O)N1C(=O)c1cc([N+](=O)[O-])cc([N+](=O)[O-])c1`, in data set [1], the IC50 stood at 625 µM. Further, in data set [2], the IC50 at 24 h was more than 100 µM. In addition, the viability at 24 h, up to 100 µM in data set [3] is more than 80%.

(Values after ChEMBL document CHEMBL5385941, “Synthesis and biological evaluation of hydantoin derivatives as potent antiplasmodial agents” (Bioorg Med Chem Lett, 2024).)
